Tests used:
PDVC57 cells = assay: Control cytotoxicity assay: solutions not aspirated before addition of cells; type: cell-based, murine
Procedure: After 48 hours, cell viability was assessed using Cell-Titer Glo. (8D) PDVC7 cells were harvested and seeded on a 96-well plate (5000 cells/well). […] FIG. 8B is a control for assay (8A) in which there is no poly-l-lysine attached to the plate.
A simulated, protein-rich tumor matrix was created by coating a 96 wellplate with 0.01% poly-l-lysine in 1×PBS. […] […] After 48 hours, cell viability was assessed using Cell-Titer Glo. PDVC7 cells were harvested and seeded on a 96-well plate (5000 cells/well). […] After 48 hours, cell viability was assessed using Cell-Titer Glo. A control for assay in which the poly-l-lysine coated plates are incubated with blank (unloaded) NP, free CPT, NNP-CPT or BNP-CPT, but these solutions are not aspirated before the addition of PDVC57 cells.

PDVC57 tumors [1] = assay: Intratumoral CPT retention (CPT recovered from tumors); type: in vivo, C57BL/6J mice; details: 240 h (10 days) after intratumoral injection, 0.25 mg CPT
Procedure: (§1) All animal procedures were conducted in accordance with Yale Institutional Animal Care and Use Committee guidelines. Mice were housed in the Yale Animal Resource Center and afforded free access to food and water. Wild-type C57BL/6J mice were obtained from The Jackson Laboratory. To prepare the animals for tumor transplantation, the dorsal right flank was shaved using electric clippers. PDVC57 cells were harvested, washed, and resuspended in 1×PBS on ice at a concentration of 5.0×10^7 cells per mL. Mice were then anesthetized in an induction chamber with […] in propylene glycol and the dorsal right flank injected intradermally/subcutaneously with 5.0×10^6 cells in 100 μl using a 27-gauge syringe, forming a small bleb at the site of injection.
When tumors reached a diameter of about 5 mm, they were treated with either free CPT (0.25 mg of CPT/50 μL of intralipid), NNP-CPT (0.25 mg of CPT/50 μL of PBS), or BNP-CPT (0.25 mg of CPT/50 μL of PBS). Following injection, tumors were harvested and lyophilized at 0, 48, and 240 h. […] The homogenate was centrifuged at 10,000×g for 5 min to pellet residual tumor and debris, the supernatant removed, and CPT quantified using its intrinsic fluorescence as described above.

PDVC57 tumors [2] = assay: In vivo assessment of CPT NP efficacy; details: single dose of 0.25 mg of CPT by intratumoral injection
Procedure: as §1
PDVC57 tumors were induced as described above. When tumors attained a diameter of approximately 5 mm, they were injected with either blank BNPs (1.99 mg/50 μL of PBS), IL-CPT (0.25 mg of CPT/50 μL), NNP-CPT (0.25 mg of CPT/50 μL of PBS), or BNP-CPT (0.25 mg of CPT/50 μL of PBS) using a 27-gauge needle, which was positioned in the center of the tumor. The entire treatment volume was administered intratumorally over 15 s. The needle was then held in this position for 10 s and withdrawn slowly in order to prevent leakage of drug from the injection site.

CC[C@@]1(O)C(=O)OCc2c1cc1n(c2=O)Cc2cc3ccccc3nc2-1 [free CPT, Camptothecin]
Killing of PDVC57 (viability) (PDVC57 cells): comparable killing
percentage of the injected CPT recovered from tumors (PDVC57 tumors [1]): undetectable
Systemic toxicity in pilot studies (PDVC57 tumors [2]): without clinical evidence of systemic toxicity
